Experimental data as given in patent US6476242B1 (Bristol-Myers Squibb Company, priority 1997, dated 2002).
Where “and” joins values, the source holds several entries; their conditions need not be identical. Equal values may be shown once.

What was measured:
Tubulin = Tubulin Data (Table 1); format: biochemical; conditions: ratio analog/paclitaxel for tubulin data
HCT116 = HCT116 activity (Table 1); format: cell-based; conditions: for IC50: HCT116 cells, unit inferred; for anal/PT (beside HCT116 and 116/VM46): ratio analog/paclitaxel in HCT116
116/VM46 = 116/VM46 activity, resistant line (Table 1); format: cell-based; conditions: for IC50: 116/VM46 cells, unit inferred; for R/S ratio: ratio 116/VM46 (resistant) to HCT116 (sensitive)

| IC50 (HCT116) | IC50 (116/VM46) | Structure (SMILES) | anal/PT (beside Tubulin Data) (Tubulin) | R/S ratio (116/VM46) | anal/PT (beside HCT116 and 116/VM46) (HCT116) |
| --- | --- | --- | --- | --- | --- |
| 2 nM | 40 nM | COc1cccc(C(=O)O[C@H]2[C@@H]3[C@]4(OC(=O)C5CC5)CO[C@@H]4C[C@H](O)[C@@]3(C)C(=O)[C@H](OC(C)=O)C3=C(C)[C@@H](OC(=O)[C@H](O)[C@@H](NC(=O)c4ccccc4)c4ccccc4)C[C@]2(O)C3(C)C)c1 [MC-134-45, 2-(m-methoxybz)-4-cyclopropylCO-PT] | 1.3 | 20 | – |
| 6.7 nM and 4.4 nM | – | COC(=O)O[C@@]12CO[C@@H]1C[C@H](O)[C@@]1(C)C(=O)[C@H](OC(C)=O)C3=C(C)[C@@H](OC(=O)[C@H](O)[C@@H](NC(=O)c4ccccc4)c4ccccc4)C[C@@](O)([C@@H](OC(=O)c4cccc(OC)c4)[C@H]21)C3(C)C [MC-134-61, 2-(m-methoxybenzoyl)-4-MeOCO-PT] | 0.9 | 129 | – |
| 2.1 nM | 44 nM | COC(=O)O[C@@]12CO[C@@H]1C[C@H](O)[C@@]1(C)C(=O)[C@H](OC(C)=O)C3=C(C)[C@@H](OC(=O)[C@H](O)[C@@H](NC(=O)c4ccccc4)c4ccccc4)C[C@@](O)([C@@H](OC(=O)c4cccc(C)c4)[C@H]21)C3(C)C [MC-134-68, 2-(m-methylbenzoyl)-4-MeOCO-PT] | 0.8 | 21 | – |
| – | 28 nM and < 16 nM | CC(=O)O[C@H]1C(=O)[C@@]2(C)[C@H]([C@H](OC(=O)c3cccc(N=[N+]=[N-])c3)[C@]3(O)C[C@H](OC(=O)[C@H](O)[C@@H](NC(=O)c4ccccc4)c4ccccc4)C(C)=C1C3(C)C)[C@]1(OC(=O)C3CC3)CO[C@@H]1C[C@@H]2O [MC-134-91, 2-m-azido-4-cyclopropylCO-PT] | 0.08 | 10.4 | – |
| 1.7 nM and 1.1 nM | 30 nM and < 16 nM | CC(=O)O[C@H]1C(=O)[C@@]2(C)[C@H]([C@H](OC(=O)c3cccc(Cl)c3)[C@]3(O)C[C@H](OC(=O)[C@H](O)[C@@H](NC(=O)c4ccccc4)c4ccccc4)C(C)=C1C3(C)C)[C@]1(OC(=O)C3CC3)CO[C@@H]1C[C@@H]2O [MC-134-92, 2-m-chloro-4-cyclopropylCO-PT] | 0.06 | 18 | – |
| 2.2 nM | 82 nM | COC(=O)OC12COC1CC(O)C1(C)C(=O)C(OC(C)=O)C3=C(C)C(OC(=O)C(O)C(NC(=O)c4ccccc4)c4ccccc4)CC(O)(C(OC(=O)c4cccc(Cl)c4)C21)C3(C)C (stereo not shown) [MC-134-100, 2-m-chloro-4-MeOCO-PT] | 0.4 | 37 | – |
| 4.7 nM | 53.2 nM | COc1cccc(C(=O)O[C@H]2[C@@H]3[C@]4(OC(=S)SC)CO[C@@H]4C[C@H](O)[C@@]3(C)C(=O)[C@H](OC(C)=O)C3=C(C)[C@@H](OC(=O)[C@H](O)[C@@H](NC(=O)c4ccccc4)c4ccccc4)C[C@]2(O)C3(C)C)c1 [MC-134-229, 2-(m-methoxybenzoyl-4-xanthyl)PT] | 8.9 | 11.32 | 3.08 |
| 5.7 nM | 58.6 nM | CSC(=S)O[C@@]12CO[C@@H]1C[C@H](O)[C@@]1(C)C(=O)[C@H](OC(C)=O)C3=C(C)[C@@H](OC(=O)[C@H](O)[C@@H](NC(=O)c4ccccc4)c4ccccc4)C[C@@](O)([C@@H](OC(=O)c4cccc(Cl)c4)[C@H]21)C3(C)C [MC-134-238, 2-(m-chlorobenzoyl-4-xanthyl)PT] | 3.5 | 10.34 | 3.72 |
| 16.8 nM | 135 nM | CSC(=S)O[C@@]12CO[C@@H]1C[C@H](O)[C@@]1(C)C(=O)[C@H](OC(C)=O)C3=C(C)[C@@H](OC(=O)[C@H](O)[C@@H](NC(=O)c4ccccc4)c4ccccc4)C[C@@](O)([C@@H](OC(=O)c4cccc(N=[N+]=[N-])c4)[C@H]21)C3(C)C [MC-134-239, 2-(m-azidobenzoyl-4-xanthyl)PT] | 42 | 8.03 | 11.02 |
| 2.5 nM | 76.6 nM | CC(=O)OC1C(=O)C2(C)C(O)CC3OCC3(OC(=O)C3CC3)C2C(OC(=O)c2ccc(Cl)cc2Cl)C2(O)CC(OC(=O)C(O)C(NC(=O)c3ccccc3)c3ccccc3)C(C)=C1C2(C)C (stereo not shown) [MC-134-247, 2-(2,4-dichlorobz)-4-cyclopropylCO-PT] | 0.7 | 30.64 | 1.09 |
| 2.1 nM | 8.2 nM | CC(=O)OC1C(=O)C2(C)C(O)CC3OCC3(OC(=O)C3CC3)C2C(OC(=O)c2ccc(F)cc2F)C2(O)CC(OC(=O)C(O)C(NC(=O)c3ccccc3)c3ccccc3)C(C)=C1C2(C)C (stereo not shown) [MC-134-248, 2-(2,4-difluorobz)-4-cyclopropylCO-PT] | 0.2 | 3.86 | 1.03 |
| 1.8 nM | 45.1 nM | COc1ccc(OC)c(C(=O)O[C@H]2[C@@H]3[C@]4(OC(=O)C5CC5)CO[C@@H]4C[C@H](O)[C@@]3(C)C(=O)[C@H](OC(C)=O)C3=C(C)[C@@H](OC(=O)[C@H](O)[C@@H](NC(=O)c4ccccc4)c4ccccc4)C[C@]2(O)C3(C)C)c1 [MC-134-250, 2-(2,5-dimethoxybz)-4-cyclopropylCO-PT] | 0.5 | 25.06 | 0.78 |
| 2430 nM | 2460 nM | CC(=O)OC1C(=O)C2(C)C(O)CC3OCC3(OC(=O)c3cccc(Cl)c3)C2C(OC(=O)c2cccc(Cl)c2)C2(O)CC(OC(=O)C(O)C(NC(=O)c3ccccc3)c3ccccc3)C(C)=C1C2(C)C (stereo not shown) [MC-134-277, 2-(m-Cl-benzoyl)-4-(m-Cl-benzoyl)PT] | 144 | – | – |

| Structure (SMILES) | IC50 (HCT116) | IC50 (116/VM46) | anal/PT (beside Tubulin Data) (Tubulin) | R/S ratio (116/VM46) | anal/PT (beside HCT116 and 116/VM46) (HCT116) |
| --- | --- | --- | --- | --- | --- |
| CC(=O)O[C@H]1C(=O)[C@@]2(C)[C@H]([C@H](OC(=O)c3ccccc3)[C@]3(O)C[C@H](OC(=O)[C@H](O)[C@@H](NC(=O)c4ccccc4)c4ccccc4)C(C)=C1C3(C)C)[C@]1(OC(C)=O)CO[C@@H]1C[C@@H]2O [paclitaxel (PT), paclitaxel, reference compound] | 2 nM | 203 nM | 1 | – | – |
